Test [1] concerns Candida albicans. In words: Antifungal activity against Candida albicans ATCC 12983 at 15 ug in 6 mm disk after 10 hrs by disc-diffusion assay. The format is functional. Particulars: ATCC 12983, 10 h, read-out: IZ.
Test [2] relates to Candida parapsilosis. Put plainly: Antifungal activity against Candida parapsilosis ATCC 12969 at 15 ug in 6 mm disk after 10 hrs by disc-diffusion assay. Format: functional. Particulars: Lodderomyces parapsilosis, ATCC 12969, 10 h; read-out: IZ.
The subject of the next test is Nakaseomyces glabratus. In words: Antifungal activity against Candida glabrata NRRL Y-65 at 15 ug in 6 mm disk after 10 hrs by disc-diffusion assay. The format is functional. Particulars: NRRL Y-65, 10 h, read-out: IZ.
Test [3] has as its system Candida tropicalis. Put plainly: Antifungal activity against Candida tropicalis ATCC 12968 at 15 ug in 6 mm disk after 10 hrs by disc-diffusion assay. Format: functional. Particulars: ATCC 12968, 10 h, read-out: IZ.
Test [4] relates to Pichia kudriavzevii. Put plainly: Antifungal activity against Candida krusei ATCC 27803 at 15 ug in 6 mm after 10 hrs by disc-diffusion assay. The conditions noted are these: ATCC 27803, 10 h, read-out: IZ. Format: functional.
In a further test the test system is Streptococcus pyogenes. In words: Antimicrobial activity against Streptococcus pyogenes at 100 ug/disk after 10 hrs by disc-diffusion assay. Format: functional. The conditions noted are these: read-out: IZ.
Test [5] concerns Staphylococcus aureus. In words: Antimicrobial activity against Staphylococcus aureus ATCC 700787 at 100 ug/disk after 10 hrs by disc-diffusion assay. Particulars: ATCC 700787, 10 h, read-out: IZ. The format is functional.
The test system of the next test is Salmonella enterica. In words: Antimicrobial activity against Salmonella typhimurium at 100 ug/disk after 10 hrs by disc-diffusion assay. Format: functional, Salmonella enterica subsp. enterica serovar Typhimurium. The conditions noted are these: read-out: IZ.
The subject of test [6] is Escherichia coli. In words: Antimicrobial activity against Escherichia coli at 100 ug/disk after 10 hrs by disc-diffusion assay. The conditions noted are these: read-out: IZ. Format: functional.
Test [7] relates to Staphylococcus epidermidis. In words: Antimicrobial activity against Staphylococcus epidermidis ATCC 12228 at 30 ug in 6 mm disk after 10 hrs by disc-diffusion assay. The format is functional. Particulars: ATCC 12228, 10 h, read-out: IZ.
Test [8] concerns Candida albicans. In words: Antifungal activity against Candida albicans ATCC 12983 at 30 ug in 6 mm disk after 10 hrs by disc-diffusion assay. The format is functional. Particulars: ATCC 12983, 10 h, read-out: IZ.
Test [9] deals with Candida parapsilosis. Put plainly: Antifungal activity against Candida parapsilosis ATCC 12969 at 30 ug in 6 mm disk after 10 hrs by disc-diffusion assay. Format: functional. Particulars: Lodderomyces parapsilosis, ATCC 12969, 10 h; read-out: IZ.
Test [10] concerns Candida tropicalis. In words: Antifungal activity against Candida tropicalis ATCC 12968 at 30 ug in 6 mm disk after 10 hrs by disc-diffusion assay. The format is functional. Particulars: ATCC 12968, 10 h, read-out: IZ.
Test [11] relates to Pichia kudriavzevii. Put plainly: Antifungal activity against Candida krusei ATCC 27803 at 30 ug in 6 mm disk after 10 hrs by disc-diffusion assay. The format is functional. Particulars: ATCC 27803, 10 h, read-out: IZ.
The test system of test [12] is Staphylococcus aureus. Put plainly: Antimicrobial activity against Staphylococcus aureus ATCC 700787 at 15 ug in 6 mm disk after 10 hrs by disc-diffusion assay. Format: functional, organism-based.
For test [13], the system named is Staphylococcus epidermidis. Put plainly: Antimicrobial activity against Staphylococcus epidermidis ATCC 12228 at 15 ug in 6 mm disk after 10 hrs by disc-diffusion assay. Format: functional, organism-based.
Another test concerns Burkholderia cepacia. In words: Antimicrobial activity against Burkholderia cepacia ATCC 25608 at 15 ug in 6 mm disk after 10 hrs by disc-diffusion assay. Format: functional, organism-based.
A further test has as its system Klebsiella pneumoniae. In words: Antimicrobial activity against Klebsiella pneumoniae ATCC 33495 at 15 ug in 6 mm disk after 10 hrs by disc-diffusion assay. Format: functional, organism-based.
The test system of a further test is Acinetobacter baumannii. Put plainly: Antimicrobial activity against Acinetobacter baumannii ATCC 19606 at 15 ug in 6 mm disk after 10 hrs by disc-diffusion assay. Format: functional, organism-based.
Another test concerns Pseudomonas aeruginosa. Put plainly: Antimicrobial activity against Pseudomonas aeruginosa ATCC 10145 at 15 ug in 6 mm disk after 10 hrs by disc-diffusion assay. The format is functional, organism-based.
Test [14] deals with Escherichia coli. In words: Antimicrobial activity against Escherichia coli ATCC 11775 at 15 ug in 6 mm disk after 10 hrs by disc-diffusion assay. Format: functional, organism-based.
The test system of another test is Enterobacter cloacae. In words: Antimicrobial activity against Enterobacter cloacae ATCC 13047 at 15 ug in 6 mm disk after 10 hrs by disc-diffusion assay. The format is functional, organism-based.

As to `CC(=O)N1CCN(c2ccc(OCC3COC(Cn4ccnc4)(c4ccc(Cl)cc4Cl)O3)cc2)CC1` (stereo not drawn) [KETOCONAZOLE], the zone of inhibition at 15 µg/disc in the test with Candida albicans [1], with Candida parapsilosis [2], in the test with Nakaseomyces glabratus, with Candida tropicalis [3] and with Pichia kudriavzevii [4] was 15 mm each time.

For the compound `C/C=C(/C(=O)O)N1C(=O)C=C(C)C1=O` [PENCOLIDE], the zone of inhibition at 100 µg/disc in the test with Streptococcus pyogenes, with Staphylococcus aureus [5], with Salmonella enterica and in the test with Escherichia coli [6] was 13 mm in each case.

With `CC[C@H](C)/C=C(C)/C=C/C1=CC2=C(Cl)C(=O)[C@](C)(OC(C)=O)C(=O)C2=CN1` [SCLEROTIORAMINE], the zone of inhibition at 30 µg/disc in test [7] turned out to be 8 mm; in the test with Candida albicans [8] it was 8 mm; in the test on Candida parapsilosis [9], 7 mm; with Candida tropicalis [10], 8 mm; with Pichia kudriavzevii [11], 8 mm.

With `CC[C@H](C)/C=C(C)/C=C/C1=CC2=C(Cl)C(=O)[C@](C)(OC(C)=O)C(=O)C2=CO1` [SCLEROTIORIN], the zone of inhibition at 30 µg/disc in [7] worked out at 8 mm.

As for GENTAMICIN, the inhibition zone (IZ) (in the test with Staphylococcus aureus [12]; in [13]; with Burkholderia cepacia; in the test on Klebsiella pneumoniae; with Acinetobacter baumannii; in the test on Pseudomonas aeruginosa) was 8 mm throughout. For the same compound, the inhibition zone (IZ) in the test with Escherichia coli [14] and with Enterobacter cloacae was 8 mm in each case.

The record behind these values is ChEMBL document CHEMBL1157831, “Chemical epigenetics alters the secondary metabolite composition of guttate excreted by an atlantic-forest-soil-derived Penicillium citreonigrum” (2010).
